Experimental data: patent US20230277508A1, “USE OF COMPOUND AS CYP2E1 INHIBITOR” (SHANGHAI LING XI BIOTECHNOLOGY DEVELOPMENT CO., LTD., priority 2020, published 2023)

Tests used:
[1] = system: collagen-induced rheumatoid arthritis in rats; assay: Collagen-induced rat rheumatoid arthritis model; type: in vivo, SD rat; conditions: SMI0 75, 37.5 and 18.75 mg/kg ig once daily, day 21, vs model group
Description: Experimental method: A collagen emulsion was used to construct an SD rat rheumatoid arthritis model. 50 rats successfully modeled were randomly divided into five groups: model group (normal saline (NS), 0.5 mL/kg, i.g.); positive control group (celecoxib, 5 mg/kg, i.g.); SMI0 low-dose group (18.75 mg/kg, i.g.); SMI0 medium-dose group (37.5 mg/kg, i.g.); and SMI0 high-dose group (75 mg/kg, i.g.). The rats each were administered once every day starting from the first day after successful modeling. A thickness of each of the left and right hindfeet and the left and right forefeet of rats was measured every day by a vernier caliper, and a volume of each of the left and right hindfeet of rats was measured by a rat foot swelling measuring instrument (which was measured every 12 h in the first 3 days). A foot swelling rate of each rat was calculated according to a change of a hindfoot volume of the rat relative to a hindfoot volume of the rat before the modeling at each time point, and a difference in foot swelling rate between groups of rats was analyzed. After the successful modeling, blood was collected from the orbit on day 7; rats were sacrificed on day 20, blood was collected, and serum was isolated; and tissues such as ankles, toe joints, spleens, and livers were collected. […]

[2] = system: focal cerebral ischemia-reperfusion injury in rats; assay: Focal CIRI rat model with MCAO; type: in vivo
From the text: Experimental method: A focal CTRI rat model with middle cerebral artery occlusion (MCAO) was constructed by a modified Zea-longa suture-occluded method.

[3] = system: glioma cell line GL261 brain in situ transplanted tumor; assay: Mouse glioma model, in situ implantation of GL261 cells into the brain; type: in vivo, C57/BL6 mouse
Description: Experimental method: A female C57/BL6 mouse glioma model was constructed through in situ implantation of a glioma cell line GL261, with a cell concentration of 1*10^6. Experimental groups: sham-operated group (n=9); model group (n=10); temozolomide group (50 mg/kg, ig, n=11); SMI0 low-dose group (3.3 mg/kg, ig, n=13); SMI0 medium-dose group (10 mg/kg, ig, n=13); and SMI0 high-dose group (30 mg/kg, ig, n=13). The SMI0 intervention group was intragastrically administered with the compound SMI0 every day starting from three days before modeling, and the positive drug group was administered on day 3 to day 7 and day 10 to day 14 after surgery. The modeling took about 21 days. At the end of the experiment, blood was collected from the orbit, a body weight was measured, then the mice each were sacrificed, and brain tissues were collected. Brain tissue specimens were subjected to HE staining, and then the brain tissue lesion and tumorigenesis of mice in each group were observed.

HepG2 liver cancer cells = assay: Direct effect on HepG2 liver cancer cells; type: cell-based; conditions: up to 100 μmol/L, 24 h
Description: Experimental method: HepG2 liver cancer cells and H22 liver cancer cells in a logarithmic growth phase each were selected and inoculated into a 96-well plate at a concentration of 1*10^5 cells/mL, and then 100 μL of a basic medium including SMI0 at different concentrations (0 μmol/L, 0.16 μmol/L, 0.8 μmol/L, 4 μmol/L, 20 μmol/L, and 100 μmol/L) was added to each well; and 24 h later, the proliferation activity of HepG2 was determined by a CCK8 method, a migration ability of HepG2 was determined by wound-healing assay, and an apoptosis ability of HepG2 was determined by flow cytometry (FCM).

[4] = system: ovarian cancer ID-8 cell line in situ transplanted tumor; assay: Mouse ovarian cancer in situ transplanted tumor model (ID-8); type: in vivo, C57/6 mouse; conditions: as high as; SMI0 30 mg/kg ig daily, 60-day modeling
Description: Experimental method: A female C57/6 mouse ovarian cancer in situ transplanted tumor model was constructed with a murine ovarian cancer ID-8 cell line at a cell concentration of 1×10^6. A model group and an SMI0 intervention group were set for the experiment. The intervention group was intragastrically administered with the SMI0 compound at 30 mg/kg every day from three days before modeling to the end of the 60-day modeling (model group, n=15; and SMI0 compound (30 mg/kg) group, n=12). At the end of the experiment, blood was collected from the orbit, a body weight was measured, then the mice each were sacrificed, and ovary tissues and tumor tissues were collected. Ovary tissue specimens were subjected to HE staining, and then the ovary tumor tissue and tumorigenesis of mice in each group were observed.

[5] = system: LPS-induced pulmonary fibrosis in mice; assay: LPS-induced mouse pulmonary fibrosis model; type: in vivo, C57BL/6N mouse
Description: Experimental method: A C57BL/6N mouse pulmonary fibrosis model was established through intratracheal instillation with 8 mg/kg LPS. An SMI0 intervention group was divided into a low-dose group and a high-dose group, which were intragastrically administered with the compound SMI0 respectively at 30 mg/kg and 90 mg/kg every day from three days before modeling to the end of the 28-d modeling (control group, n=8; model group, n=8; and SMI0 compound high-dose group, n=8). At the end of the experiment, a body weight of mice in each group was recorded, blood was collected from the orbit, the mice were sacrificed, and lung tissues were collected and weighed. The left lungs were fixed in 4% formalin and subjected to HE and Masson staining, and the lung tissues were subjected to fibrosis grading and fibrosis and histological scoring to reflect a severity of pulmonary fibrosis.
Experimental method: An ammonium molybdate method and a microplate method were used to treat a mouse lung tissue homogenate, and changes of oxidative stress indexes CAT and GSH in the lung tissue of mice in each group were detected. Expression levels of […] and α-SMA in the mouse lung tissue were evaluated through immunohistochemical staining, and a positive area percentage was counted by Image-Pro Plus software. Expression levels of the epithelial cell marker E-cadherin, the apoptosis-associated protein Bax, and the anti-apoptotic protein Bcl-2 were detected by WB.

[6] = SMI0 intervention group vs model group, P<0.01

`CC(=O)c1scnc1C` [SMI0] was tested, and the foot swelling degrees [1] was “significantly reduced”, the “inhibition rate on the cerebral edema volume” value ([2]; SMI0 150 mg/kg) was 34.39% and the “inhibition rate on the cerebral infarction volume” value ([2]; SMI0 150 mg/kg) was 36.06%. For the same compound, the cerebral edema volume ([2]; SMI0 150 mg/kg ig 10 min before reperfusion, 24 h reperfusion, model group 19.25%) was 12.63%, the cerebral infarction volume ([2]; SMI0 150 mg/kg ig 10 min before reperfusion, 24 h reperfusion, model group 51.03%) was 32.62% and the “glioma growth in mice” value ([3]; SMI0 intervention (3.3, 10, 30 mg/kg ig daily), about 21 days, vs model group) was “significantly inhibited”. The “tumor proliferation inhibition rate” value ([3]; as high as, SMI0 high-dose group 30 mg/kg ig) was 97.6%, the “effect on the proliferation, migration, and apoptosis of HepG2 liver cancer cells” value (HepG2 liver cancer cells) was “no significant inhibitory effect” and the “ascites weight inhibition rate” value [4] was 76.40%. The “tumor proliferation inhibition rate” value [4] was 63.14%, the lung index ([5]; SMI0 intervention group (30, 90 mg/kg ig daily, 28 d) vs model group) was “significantly reduced” and the “immunostaining-positive area percentage of TGF-β 1” value [5, 6] was “significantly reduced”. For the same compound, the “immunostaining-positive area percentage of α-SMA” value [5, 6] was “significantly reduced”, the “oxidative stress index CAT level in lung tissue” value [5, 6] was “significantly increased” and the “pathological inflammatory cell infiltration” value ([5]; SMI0 intervention group, 28 d) was “no obvious pathological inflammatory cell infiltration”. The Bcl-2 level ([5]; WB, SMI0 intervention group vs model group, P<0.001) was “significantly increased”, the Bax level ([5]; WB, SMI0 intervention group vs model group, P<0.01) was “significantly reduced” and the “epithelial cell marker E-cadherin level” value ([5]; WB, SMI0 intervention group vs model group, P<0.05) was “significantly increased”.
